Measurements reported in patent US20130203635A1, “NUCLEIC ACID LIGATION METHOD” (priority 2012, published 2013).

What was measured:
[1] = tested on: Escherichia coli RtcB ligase; experiment: E. coli RtcB RNA ligation assay (3′-P and 5′-OH termini, urea-polyacrylamide gel); format: biochemical
Text: FIG. 1. […] (A) RNA ligation substrate that mimics a broken tRNA anti-codon. FAM label allows visualization in a urea-polyacrylamide gel. […] (B) Cofactor- and metal-dependence of ligation. Reactions contain manganese, except in the “—Mn^2+” lane. The lane labeled “C78A” is a ligation reaction performed with RtcB that has a C78A substitution within the predicted metal binding site. (C) Ligation assays using GTP analogues as cofactors. […] (E) RNA termini specificity of RtcB. Modifications to the ligatable ends of the tRNA mimic substrate were made as indicated and tested in ligation reactions.
To assay for ligation, we initially used two single-stranded RNA (ssRNA) oligos that were each 10 nucleotides in length. The 5′ RNA fragment was labeled with 6-carboxyfluorescein (FAM) at its 5′ end and phosphorylated at its 3′ end. The 3′ RNA fragment had hydroxyl groups at each end. We intended to convert the 3′-P into a 2′,3′-cyclic phosphate by incubation with RtcA and ATP, so as to produce a suitable substrate for RtcB.
These reactions were performed with high concentrations of GTP analogues to ensure saturation of RtcB.
We investigated the RNA termini structure requirements for ligation by modifying the ends of our tRNA mimic substrate. First, all four combinations of either a phosphate or hydroxyl group at each termini were sampled while maintaining a 2′-OH on the 5′ side of the ligation junction. […] Next, the importance of the terminal ribose 2′-OH for ligation was probed by replacing this hydroxyl group with either hydrogen (2′-H) or fluorine (2′-F).

P. horikoshii RtcB [2] = experiment: P. horikoshii RtcB RNA ligation assay; format: biochemical, Pyrococcus horikoshii; conditions: Archease 0.25 μM, NTP 100 μM, RtcB 5 μM (FIG. 10B, 11B)
Text: FIG. 2. P. horikoshii RtcB catalyzed ligation of 3′-P and 5′-OH RNA termini. P. horikoshii RtcB requires Mn^2+ and GTP for ligation. […] The lane labeled “2′-deoxy” is a ligation reaction using the tRNA mimic substrate but with a 3′-P/2′-H termini on its 5′ fragment. The lane labeled “C98A” is a ligation reaction with RtcB that has a C98A substitution within the predicted metal-binding site.
RtcB from the archaeal domain of life likewise catalyzes the GTP-dependent ligation of 3′-P and 5′-OH RNA termini. The crystal structure of RtcB from a hyperthermophilic archaeon, Pyrococcus horikoshii, was determined as part of a structural genomics project (21). […] The P. horikoshii homologue has 29% amino-acid sequence identity to E. coli RtcB, and 49% identity to the human ligase (HSPC117). To investigate if RtcB from archaea catalyzes the GTP-dependent ligation of 3′-P and 5′-OH RNA termini, we synthesized a P. horikoshii rtcB gene and produced soluble enzyme in E. coli. […] The P. horikoshii ligase also required a 2′-OH on the terminal nucleotide of the 5′ RNA fragment.
RNA Ligation Assay. Ligation assays with single-stranded RNA as the substrate used two 10-nt oligonucleotides that were synthesized by Integrated DNA Technologies (15). […] The 3′ RNA fragment had hydroxyl groups on each end. The sequence of the 5′ fragment was FAM-5′-AAAUAACAAA-3′-P (SEQ ID NO:6) and the sequence of the 3′ RNA fragment was 5′-AAAUAACAAA-3′ (SEQ ID NO:6). Ligation reactions were performed in 10-μL solutions consisting of 50 mM Bis-Tris buffer, pH 7.0, containing NaCl (300 mM), […] (0.25 mM), GTP (100 μM), each RNA fragment (1 μM), and RtcB (10 μM). Reaction mixtures were incubated at 70° C. for 1 h prior to the addition of water (40 μL) and RNA-loading buffer (50 μL). Reaction mixtures were subjected to electrophoresis and visualized as previously described in the previous examples.
The ability of Archease to activate P. horikoshii RtcB was tested in reactions using ssRNA substrates. Ligation reactions included a 10-nt 5′ RNA fragment and a 10-nt 3′ RNA fragment. […] The 3′ RNA fragment had hydroxyl groups on each end. The sequence of the 5′ fragment was FAM-5′-AAAUAACAAA-3′-P (SEQ ID NO:6) and the sequence of the 3′ RNA fragment was 5′-AAAUAACAAA-3′ (SEQ ID NO:6). Ligation reactions were performed in 50-μL solutions consisting of 50 mM Tris-HCl buffer, pH 7.4, containing NaCl (300 mM), MnCl2 (0.25 mM), GTP (100 μM), RNA fragments (100 pmol of each), and P. horikoshii RtcB (5 μM).
Ligation reaction mixtures were set up as described above, and each was divided into two tubes. No Archease was added to one set of reaction mixtures (FIG. 10A), and Archease was added to a concentration of 0.25 μM to the other set (FIG. 10B). […] Archease had no effect on ligation reactions that used 2′-F RNA.
We tested the ability of Archease to enable RtcB to use cofactors other than GTP or dGTP. Ligation reaction mixtures with RtcB were set up as described above, and each was divided into two tubes. No Archease was added to one set of reaction mixtures (FIG. 11A), and Archease was added to a concentration of 0.25 μM to the other set (FIG. 11B). The various NTPs were included at a concentration of 100 μM.

E. coli RtcA = E. coli RtcA (Escherichia coli, UniProt P46849); conditions: read-out: ATP KM; cited from earlier work
human RtcA = human RtcA (Homo sapiens, UniProt O00442); conditions: read-out: ATP KM; cited from earlier work
P. horikoshii RtcB [3] = experiment: 14C-labeled GTP binding assay; set-up: species or system Pyrococcus horikoshii
Experimental: Structure of the RtcB-Histidine-GMP Covalent Intermediate. To determine the optimal reaction conditions that enable formation of the RtcB-GMP covalent intermediate, ^14C-labeled GTP binding studies were performed (7). […] Under these conditions, the maximal GMP:RtcB molar ratio was determined to be (0.76±0.02):1. No binding of GTP to RtcB was detected in the absence of Mn(II). Using these reaction conditions, we formed the RtcB-GMP intermediate and removed unbound Mn(II), GTP, and PPi by gel-filtration chromatography. The protein was concentrated to 200 μM, and crystals of this complex diffracted to a resolution of 2.4 Å.
^14C-labeled GTP Binding Assays. […] Absorbance readings at A260 and A280 were obtained for each fraction. The protein fractions have high A280 readings, whereas the fractions with free GTP have higher A260 readings. In fractions containing protein, the RtcB concentrations were calculated from the A280 reading using an extinction coefficient of 62,340 M^−1 cm^−1 (ExPASy). The concentration of [8-^14C]GTP in the protein fractions was determined by liquid scintillation counting. Each 0.5-mL fraction was mixed with 3.5 mL of Ultima Gold MV liquid scintillation cocktail (Perkin Elmer) in a 4-mL vial, and counts were read on a MicroBeta TriLux liquid scintillation counter (Perkin Elmer). […] Under these conditions, the GTP:RtcB molar ratio was determined to be (0.76±0.02):1. […]

[4] = biological target: T1, Pyrococcus horikoshii Archease
T1 chain: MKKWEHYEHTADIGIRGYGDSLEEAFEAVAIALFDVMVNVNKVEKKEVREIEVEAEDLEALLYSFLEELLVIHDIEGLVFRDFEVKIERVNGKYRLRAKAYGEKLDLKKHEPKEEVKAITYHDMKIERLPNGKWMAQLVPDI

E. coli RtcA, sequence (P46849 whole entry): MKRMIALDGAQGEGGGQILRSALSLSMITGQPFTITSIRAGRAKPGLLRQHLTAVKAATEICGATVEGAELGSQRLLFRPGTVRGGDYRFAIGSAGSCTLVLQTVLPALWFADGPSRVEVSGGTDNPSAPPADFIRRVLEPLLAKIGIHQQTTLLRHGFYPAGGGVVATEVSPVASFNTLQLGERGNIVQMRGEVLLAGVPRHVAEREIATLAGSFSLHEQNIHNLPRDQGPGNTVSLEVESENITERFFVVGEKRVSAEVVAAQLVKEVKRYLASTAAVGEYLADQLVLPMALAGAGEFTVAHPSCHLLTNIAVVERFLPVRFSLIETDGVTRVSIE
human RtcA, sequence (O00442 whole entry): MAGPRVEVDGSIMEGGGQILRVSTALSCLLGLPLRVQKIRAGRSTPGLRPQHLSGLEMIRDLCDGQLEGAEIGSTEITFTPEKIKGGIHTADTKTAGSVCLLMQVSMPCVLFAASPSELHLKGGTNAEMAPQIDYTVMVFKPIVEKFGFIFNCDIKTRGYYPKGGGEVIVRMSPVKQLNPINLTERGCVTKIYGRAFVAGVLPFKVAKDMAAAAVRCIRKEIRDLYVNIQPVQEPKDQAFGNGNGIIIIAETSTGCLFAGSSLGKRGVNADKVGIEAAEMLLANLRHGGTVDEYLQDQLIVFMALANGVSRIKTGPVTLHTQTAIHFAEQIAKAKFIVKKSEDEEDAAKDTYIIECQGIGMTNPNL

For `Nc1ncnc2c1ncn2[C@@H]1O[C@H](COP(=O)(O)OP(=O)(O)OP(=O)(O)O)[C@@H](O)[C@H]1O` [ATP, adenosine-5′-triphosphate], the “use as cofactor in ligation of 3′-P and 5′-OH RNA termini” value ([1]; in place of GTP, tRNA anticodon stem-loop mimic substrate, with Mn2+ (FIG. 1B, 1C)) is listed as “unable to substitute for GTP”, the “use as cofactor in RNA ligation with Archease” value (P. horikoshii RtcB [2]) is listed as “enables RtcB to use ATP” and the Km (E. coli RtcA) is listed as 20 µM. For the same molecule, the Km (human RtcA) was 6 µM.

For `Nc1nc2c(ncn2[C@@H]2O[C@H](COP(=O)(O)OP(=O)(O)OP(=O)(O)O)[C@@H](O)[C@H]2O)c(=O)[nH]1` [GTP, guanosine-5′-triphosphate], the Km ([1]; titration with GTP, tRNA mimic substrate (FIG. 1D)) was under 16 µM, the “use as cofactor in RNA ligation with Archease” value (P. horikoshii RtcB [2]) was “selectively activated” and the “maximal GMP:RtcB (GTP:RtcB) molar ratio” value (P. horikoshii RtcB [3]; RtcB 100 μM, GTP 1 mM, MnCl2 2 mM, 70° C. for 45 min) was 0.76±0.02. The “binding of GTP to RtcB” value (P. horikoshii RtcB [3]; in the absence of Mn(II)) was “No binding”.

B1: Pyrococcus horikoshii 2',3'-cyclic phosphate RNA ligase (RtcB) (protein)
chain: MVVPLKRIDKIRWEIPKFDKRMRVPGRVYADEVLLEKMKNDRTLEQATNVAMLPGIYKYSIVMPDGHQGYGFPIGGVAAFDVKEGVISPGGIGYDINCGVRLIRTNLTEKEVRPRIKQLVDTLFKNVPSGVGSQGRIKLHWTQIDDVLVDGAKWAVDNGYGWERDLERLEEGGRMEGADPEAVSQRAKQRGAPQLGSLGSGNHFLEVQVVDKIFDPEVAKAYGLFEGQVVVMVHTGSRGLGHQVASDYLRIMERAIRKYRIPWPDRELVSVPFQSEEGQRYFSAMKAAANFAWANRQMITHWVRESFQEVFKQDPEGDLGMDIVYDVAHNIGKVEEHEVDGKRVKVIVHRKGATRAFPPGHEAVPRLYRDVGQPVLIPGSMGTASYILAGTEGAMKETFGSTCHGAGRVLSRKAATRQYRGDRIRQELLNRGIYVRAASMRVVAEEAPGAYKNVDNVVKVVSEAGIAKLVARMRPIGVAKG
In the case of B1, the “RNA ligation (urea-polyacrylamide gel of FAM-labeled ssRNA substrate and product)” value [4] is reported as “the addition of Archease at concentrations that are lower than that of RtcB or RNA enhanced catalysis of RNA ligation”.
